How the values were obtained:
Assay in all cases: relative viability (nuclei count vs DMSO), 5 days (fraction); higher = more cells survive
COR-L 105 = test system: COR-L 105
Summary of the method: (§1)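 Relative viability was taken as the ratio of nuclei in treated wells to nuclei in vehicle wells. Lung cancer cell lines in 1536-well plates received compounds by pin tool one day after seeding, either one drug alone or a fixed anchor-drug dose plus five library-drug doses (not always all listed) in √10 steps. Nuclei were counted on 4× images after 5 days of treatment, and values are medians of duplicate plates.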

HCC-366 = test system: HCC-366
Summary of the method: as §1

PC-3 [JPC-3] = test system: PC-3 [JPC-3]
Summary of the method: as §1

SW 900 = test system: SW 900
Summary of the method: as §1

NCI-H1734 = test system: NCI-H1734
Summary of the method: as §1

LK-2 = test system: LK-2
Summary of the method: as §1

LOU-NH91 = test system: LOU-NH91
Summary of the method: as §1

NCI-H1755 = test system: NCI-H1755
Summary of the method: as §1

NCI-H23 = test system: NCI-H23
Summary of the method: as §1

NCI-H1975 = test system: NCI-H1975
Summary of the method: as §1

A-427 = test system: A-427
Summary of the method: as §1

SK-MES-1 = test system: SK-MES-1
Summary of the method: as §1

H3255 = test system: H3255
Summary of the method: as §1

ChaGo-K-1 = test system: ChaGo-K-1
Summary of the method: as §1

NCI-H441 = test system: NCI-H441
Summary of the method: as §1

NCI-H596 = test system: NCI-H596
Summary of the method: as §1

NCI-H1666 = test system: NCI-H1666
Summary of the method: as §1

EMC-BAC-2 = test system: EMC-BAC-2
Summary of the method: as §1

EKVX = test system: EKVX
Summary of the method: as §1

NCI-H2170 = test system: NCI-H2170
Summary of the method: as §1

NCI-H520 = test system: NCI-H520
Summary of the method: as §1

Question: Which relative viability (COR-L 105; first compound 0.01 µM) does the source give for CCN(CC)CCCCNc1ncc2cc(-c3cc(OC)cc(OC)c3)c(NC(=O)NC(C)(C)C)nc2n1 + Nc1ncn([C@H]2C[C@H](O)[C@@H](CO)O2)c(=O)n1 [Decitabine] (partner 2 µM) here?
Answer: 0.591

Question: And the relative viability (COR-L 105; first compound 0.03162 µM)?
Answer: 0.777

Question: What about the relative viability (COR-L 105; first compound 0.1 µM) of the same compound?
Answer: 0.692

Question: And the relative viability (COR-L 105; first compound 0.3162 µM)?
Answer: 0.786

Question: What about the relative viability (COR-L 105; first compound 1 µM) of the same compound?
Answer: 0.669

Question: And the relative viability (HCC-366; first compound 0.01 µM)?
Answer: 0.316

Question: And the relative viability (HCC-366; first compound 0.03162 µM)?
Answer: 0.378

Question: What about the relative viability (HCC-366; first compound 0.1 µM) of the same compound?
Answer: 0.368

Question: And the relative viability (HCC-366; first compound 0.3162 µM)?
Answer: 0.41

Question: And the relative viability (HCC-366; first compound 1 µM)?
Answer: 0.319

Question: And the relative viability (PC-3 [JPC-3]; first compound 0.03162 µM)?
Answer: 0.708

Question: And the relative viability (PC-3 [JPC-3]; first compound 0.1 µM)?
Answer: 0.928

Question: What about the relative viability (PC-3 [JPC-3]; first compound 0.3162 µM) of the same compound?
Answer: 0.851

Question: What about the relative viability (PC-3 [JPC-3]; first compound 1 µM) of the same compound?
Answer: 0.804

Question: What about the relative viability (SW 900; first compound 0.01 µM) of the same compound?
Answer: 0.509

Question: What about the relative viability (SW 900; first compound 0.03162 µM) of the same compound?
Answer: 0.401

Question: What about the relative viability (SW 900; first compound 0.1 µM) of the same compound?
Answer: 0.459

Question: And the relative viability (SW 900; first compound 0.3162 µM)?
Answer: 0.416

Question: What about the relative viability (SW 900; first compound 1 µM) of the same compound?
Answer: 0.437

Question: What about the relative viability (NCI-H1734; first compound 0.01 µM) of the same compound?
Answer: 0.485

Question: What about the relative viability (NCI-H1734; first compound 0.03162 µM) of the same compound?
Answer: 0.372

Question: And the relative viability (NCI-H1734; first compound 0.1 µM)?
Answer: 0.534

Question: What about the relative viability (NCI-H1734; first compound 0.3162 µM) of the same compound?
Answer: 0.473

Question: And the relative viability (NCI-H1734; first compound 1 µM)?
Answer: 0.475

Question: What about the relative viability (LK-2; first compound 0.01 µM) of the same compound?
Answer: 0.305

Question: And the relative viability (LK-2; first compound 0.03162 µM)?
Answer: 0.268

Question: What about the relative viability (LK-2; first compound 0.1 µM) of the same compound?
Answer: 0.192

Question: What about the relative viability (LK-2; first compound 0.3162 µM) of the same compound?
Answer: 0.217

Question: What about the relative viability (LK-2; first compound 1 µM) of the same compound?
Answer: 0.175

Question: And the relative viability (LOU-NH91; first compound 0.01 µM)?
Answer: 0.799

Question: What about the relative viability (LOU-NH91; first compound 0.03162 µM) of the same compound?
Answer: 0.783

Question: And the relative viability (LOU-NH91; first compound 0.1 µM)?
Answer: 0.875

Question: What about the relative viability (LOU-NH91; first compound 0.3162 µM) of the same compound?
Answer: 0.801

Question: What about the relative viability (LOU-NH91; first compound 1 µM) of the same compound?
Answer: 0.804

Question: And the relative viability (NCI-H1755; first compound 0.01 µM)?
Answer: 0.72

Question: And the relative viability (NCI-H1755; first compound 0.03162 µM)?
Answer: 0.715

Question: What about the relative viability (NCI-H1755; first compound 0.1 µM) of the same compound?
Answer: 0.712

Question: What about the relative viability (NCI-H1755; first compound 0.3162 µM) of the same compound?
Answer: 0.756

Question: What about the relative viability (NCI-H1755; first compound 1 µM) of the same compound?
Answer: 0.685

Question: And the relative viability (NCI-H23; first compound 0.01 µM)?
Answer: 0.297

Question: What about the relative viability (NCI-H23; first compound 0.03162 µM) of the same compound?
Answer: 0.307

Question: And the relative viability (NCI-H23; first compound 0.1 µM)?
Answer: 0.292

Question: And the relative viability (NCI-H23; first compound 0.3162 µM)?
Answer: 0.355

Question: What about the relative viability (NCI-H23; first compound 1 µM) of the same compound?
Answer: 0.326

Question: And the relative viability (NCI-H1975; first compound 0.01 µM)?
Answer: 0.396

Question: And the relative viability (NCI-H1975; first compound 0.03162 µM)?
Answer: 0.395

Question: What about the relative viability (NCI-H1975; first compound 0.1 µM) of the same compound?
Answer: 0.381

Question: And the relative viability (NCI-H1975; first compound 0.3162 µM)?
Answer: 0.389

Question: And the relative viability (NCI-H1975; first compound 1 µM)?
Answer: 0.358

Question: And the relative viability (A-427; first compound 0.01 µM)?
Answer: 0.626

Question: What about the relative viability (A-427; first compound 0.03162 µM) of the same compound?
Answer: 0.506

Question: What about the relative viability (A-427; first compound 0.1 µM) of the same compound?
Answer: 0.518

Question: And the relative viability (A-427; first compound 0.3162 µM)?
Answer: 0.548

Question: What about the relative viability (A-427; first compound 1 µM) of the same compound?
Answer: 0.524

Question: And the relative viability (SK-MES-1; first compound 0.01 µM)?
Answer: 0.435

Question: What about the relative viability (SK-MES-1; first compound 0.03162 µM) of the same compound?
Answer: 0.425

Question: What about the relative viability (SK-MES-1; first compound 0.1 µM) of the same compound?
Answer: 0.366

Question: And the relative viability (SK-MES-1; first compound 0.3162 µM)?
Answer: 0.318

Question: And the relative viability (SK-MES-1; first compound 1 µM)?
Answer: 0.356

Question: And the relative viability (H3255; first compound 0.01 µM)?
Answer: 0.453

Question: And the relative viability (H3255; first compound 0.1 µM)?
Answer: 0.65

Question: What about the relative viability (H3255; first compound 0.3162 µM) of the same compound?
Answer: 0.712

Question: What about the relative viability (H3255; first compound 1 µM) of the same compound?
Answer: 0.448

Question: What about the relative viability (ChaGo-K-1; first compound 0.01 µM) of the same compound?
Answer: 0.563

Question: And the relative viability (ChaGo-K-1; first compound 0.03162 µM)?
Answer: 0.516

Question: And the relative viability (ChaGo-K-1; first compound 0.1 µM)?
Answer: 0.54

Question: What about the relative viability (ChaGo-K-1; first compound 0.3162 µM) of the same compound?
Answer: 0.539

Question: What about the relative viability (ChaGo-K-1; first compound 1 µM) of the same compound?
Answer: 0.51

Question: And the relative viability (NCI-H441; first compound 0.01 µM)?
Answer: 0.118

Question: And the relative viability (NCI-H441; first compound 0.03162 µM)?
Answer: 0.265

Question: And the relative viability (NCI-H441; first compound 0.1 µM)?
Answer: 0.242

Question: And the relative viability (NCI-H441; first compound 0.3162 µM)?
Answer: 0.261

Question: And the relative viability (NCI-H441; first compound 1 µM)?
Answer: 0.244

Question: And the relative viability (NCI-H596; first compound 0.03162 µM)?
Answer: 1.15

Question: And the relative viability (NCI-H596; first compound 0.1 µM)?
Answer: 1.03

Question: And the relative viability (NCI-H596; first compound 0.3162 µM)?
Answer: 1.01

Question: And the relative viability (NCI-H596; first compound 1 µM)?
Answer: 0.893

Question: What about the relative viability (NCI-H1666; first compound 0.01 µM) of the same compound?
Answer: 0.695

Question: What about the relative viability (NCI-H1666; first compound 0.03162 µM) of the same compound?
Answer: 0.791

Question: And the relative viability (NCI-H1666; first compound 0.1 µM)?
Answer: 0.761

Question: And the relative viability (NCI-H1666; first compound 0.3162 µM)?
Answer: 0.759

Question: What about the relative viability (NCI-H1666; first compound 1 µM) of the same compound?
Answer: 0.79

Question: And the relative viability (EMC-BAC-2; first compound 0.03162 µM)?
Answer: 1

Question: What about the relative viability (EMC-BAC-2; first compound 0.1 µM) of the same compound?
Answer: 0.938

Question: And the relative viability (EMC-BAC-2; first compound 0.3162 µM)?
Answer: 0.948

Question: And the relative viability (EMC-BAC-2; first compound 1 µM)?
Answer: 0.876

Question: And the relative viability (EKVX; first compound 0.03162 µM)?
Answer: 0.323

Question: What about the relative viability (EKVX; first compound 0.1 µM) of the same compound?
Answer: 0.329

Question: What about the relative viability (EKVX; first compound 0.3162 µM) of the same compound?
Answer: 0.314

Question: And the relative viability (EKVX; first compound 1 µM)?
Answer: 0.295

Question: And the relative viability (NCI-H2170; first compound 0.01 µM)?
Answer: 0.474

Question: What about the relative viability (NCI-H2170; first compound 0.03162 µM) of the same compound?
Answer: 0.427

Question: What about the relative viability (NCI-H2170; first compound 0.1 µM) of the same compound?
Answer: 0.436

Question: What about the relative viability (NCI-H2170; first compound 0.3162 µM) of the same compound?
Answer: 0.47

Question: What about the relative viability (NCI-H2170; first compound 1 µM) of the same compound?
Answer: 0.497

Question: And the relative viability (NCI-H520; first compound 0.01 µM)?
Answer: 0.51

Question: And the relative viability (NCI-H520; first compound 0.03162 µM)?
Answer: 0.466

Question: What about the relative viability (NCI-H520; first compound 0.1 µM) of the same compound?
Answer: 0.501

Question: What about the relative viability (NCI-H520; first compound 0.3162 µM) of the same compound?
Answer: 0.313

Question: And the relative viability (NCI-H520; first compound 1 µM)?
Answer: 0.202

Reference: the supplement of paper PMC10307832
